Measured values published in PMC9098913, “In vitro reconstitution of Escherichia coli divisome activation” (Nature Communications, 2022).

Experiment: Diffusion coefficient (Dcoeff) of FtsA from FRAP
Settings: for Diffusion Coefficient, mean: Fig. 3j
Text: We could also use the data from these bleaching experiments to quantify the membrane-binding kinetics and diffusion of membrane-bound proteins by analysing the change of the fluorescence profile during recovery.
Equimolar concentrations of Cy3- and Cy5-labelled FtsA, supplemented with 20% unlabelled FtsA were used to study FRET and FRAP. Five pre-bleach frames were acquired, followed by acceptor photobleaching of a rectangular ROI with 40% 641 nm laser power and a dwell size of 1 µs/pixel, 75% overlapping lines. The recovery of the signal or the increase in donor intensity were measured with either two frames or one frame per second.
Bleaching the acceptor dye leads to an increase in the donor intensity, which can be used to quantify the Foerster Resonance energy transfer (FRET)[48]. FRET efficiency was quantified with E%=Ipost/Ipost+Ipre⋅100 , where Ipost is the intensity of the […] and Ipre is the […]. […] To extract the contribution of both processes, we adjusted a routine recently published by Gerganova et al.[33]. In short, the code provides the contribution of both modes of recovery by analysing the shape of the fluorescence recovery profile. […] Contribution of diffusion leads to a change of the slope of the outer borders of the bleached region (S4h right). Thus, by measuring the change of the slope of the border recovery, diffusion and simple on/off binding can be distinguished. We developed “FRAPdiff”, a graphical user interface, which uses the original fit routine by David Rutkowski. It can be used directly on.tiff movies with annotated bleach regions as ImageJ ROIs. In addition, we added optional bleach correction, user selectable projection axis (x or y), and optional mirroring of the recovery profiles, if bleaching was not symmetric. The original fit routine for estimating the recovery and diffusion dynamics can be found at https://github.com/davidmrutkowski/1DReflectingDiffusion. FRAPdiff is available at 10.5281/zenodo.6400639[49] under the GPLv3 open-source license.

With “FtsA WT: wild-type E. coli actin-homologue FtsA, membrane anchor of FtsZ” the “Diffusion Coefficient, mean” value (0.1 µM FtsA + N) was 1.61E-02 µm2/s, the “Diffusion Coefficient, mean” value (0.1 µM FtsA + Z&N) was 1.18E-02 µm2/s and the “Diffusion Coefficient, mean” value (0.1 µM FtsA + Z) was 1.69E-02 µm2/s. The “Diffusion Coefficient” value (0.1µM FtsA alone, Mean, n=18 (WT), 6 (R286W)) was 0.0268, the “Diffusion Coefficient, mean” value (0.1 µM FtsA alone) was 2.68E-02 µm2/s and the “Diffusion Coefficient” value (0.1µM FtsA alone, replicate Exp.1) was 5.58E-02. The “Diffusion Coefficient” value (0.1µM FtsA alone, replicate Exp.10) was 2.60E-03, the “Diffusion Coefficient” value (0.1µM FtsA alone, replicate Exp.11) was 5.85E-03 and the “Diffusion Coefficient” value (0.1µM FtsA alone, replicate Exp.12) was 4.68E-03. For the same substance, the “Diffusion Coefficient” value (0.1µM FtsA alone, replicate Exp.13) was 4.29E-02, the “Diffusion Coefficient” value (0.1µM FtsA alone, replicate Exp.14) was 3.12E-02 and the “Diffusion Coefficient” value (0.1µM FtsA alone, replicate Exp.15) was 2.09E-02. For the same substance, the “Diffusion Coefficient” value (0.1µM FtsA alone, replicate Exp.16) was 1.45E-02, the “Diffusion Coefficient” value (0.1µM FtsA alone, replicate Exp.17) was 4.66E-02 and the “Diffusion Coefficient” value (0.1µM FtsA alone, replicate Exp.18) was 2.25E-02. For the same substance, the “Diffusion Coefficient” value (0.1µM FtsA alone, replicate Exp.2) was 3.42E-03, the “Diffusion Coefficient” value (0.1µM FtsA alone, replicate Exp.3) was 1.87E-02 and the “Diffusion Coefficient” value (0.1µM FtsA alone, replicate Exp.4) was 5.22E-02. The “Diffusion Coefficient” value (0.1µM FtsA alone, replicate Exp.5) was 2.45E-02, the “Diffusion Coefficient” value (0.1µM FtsA alone, replicate Exp.6) was 4.34E-02 and the “Diffusion Coefficient” value (0.1µM FtsA alone, replicate Exp.7) was 4.83E-02. For the same substance, the “Diffusion Coefficient” value (0.1µM FtsA alone, replicate Exp.8) was 3.63E-02, the “Diffusion Coefficient” value (0.1µM FtsA alone, replicate Exp.9) was 8.38E-03 and the “Diffusion Coefficient” value (0.1µM, + FtsN&Z, Mean, n=5 (WT), 3 (R286W)) was 0.0118. For the same substance, the “Diffusion Coefficient” value (0.1µM, + FtsN&Z, replicate Exp.1) was 3.37E-03, the “Diffusion Coefficient” value (0.1µM, + FtsN&Z, replicate Exp.2) was 5.52E-03 and the “Diffusion Coefficient” value (0.1µM, + FtsN&Z, replicate Exp.3) was 9.34E-03. For the same substance, the “Diffusion Coefficient” value (0.1µM, + FtsN&Z, replicate Exp.4) was 2.03E-02, the “Diffusion Coefficient” value (0.1µM, + FtsN&Z, replicate Exp.5) was 2.02E-02 and the “Diffusion Coefficient” value (0.1µM, + FtsN, Mean, n=5 (WT), 3 (R286W)) was 0.0161. For the same substance, the “Diffusion Coefficient” value (0.1µM, + FtsN, replicate Exp.1) was 2.03E-02, the “Diffusion Coefficient” value (0.1µM, + FtsN, replicate Exp.2) was 6.39E-04 and the “Diffusion Coefficient” value (0.1µM, + FtsN, replicate Exp.3) was 1.18E-02. For the same substance, the “Diffusion Coefficient” value (0.1µM, + FtsN, replicate Exp.4) was 1.64E-02, the “Diffusion Coefficient” value (0.1µM, + FtsN, replicate Exp.5) was 3.14E-02 and the “Diffusion Coefficient” value (0.1µM, + FtsZ, Mean, n=8 (WT), 4 (R286W)) was 0.0169. The “Diffusion Coefficient” value (0.1µM, + FtsZ, replicate Exp.1) was 1.01E-02, the “Diffusion Coefficient” value (0.1µM, + FtsZ, replicate Exp.2) was 2.79E-03 and the “Diffusion Coefficient” value (0.1µM, + FtsZ, replicate Exp.3) was 1.71E-02. The “Diffusion Coefficient” value (0.1µM, + FtsZ, replicate Exp.4) was 3.53E-02, the “Diffusion Coefficient” value (0.1µM, + FtsZ, replicate Exp.5) was 2.97E-02 and the “Diffusion Coefficient” value (0.1µM, + FtsZ, replicate Exp.6) was 3.44E-03. The “Diffusion Coefficient” value (0.1µM, + FtsZ, replicate Exp.7) was 2.52E-02, the “Diffusion Coefficient” value (0.1µM, + FtsZ, replicate Exp.8) was 1.14E-02 and the “Diffusion Coefficient, mean” value (0.2 µM FtsA + N) was 1.32E-02 µm2/s. The “Diffusion Coefficient, mean” value (0.2 µM FtsA + Z&N) was 7.76E-03 µm2/s, the “Diffusion Coefficient, mean” value (0.2 µM FtsA + Z) was 8.12E-03 µm2/s and the “Diffusion Coefficient” value (0.2µM FtsA alone, Mean, n=24 (WT), 6 (R286W)) was 0.0177. The “Diffusion Coefficient, mean” value (0.2 µM FtsA alone) was 1.77E-02 µm2/s, the “Diffusion Coefficient” value (0.2µM FtsA alone, replicate Exp.1) was 1.00E-02 and the “Diffusion Coefficient” value (0.2µM FtsA alone, replicate Exp.10) was 2.11E-07. The “Diffusion Coefficient” value (0.2µM FtsA alone, replicate Exp.11) was 2.08E-02, the “Diffusion Coefficient” value (0.2µM FtsA alone, replicate Exp.12) was 4.11E-02 and the “Diffusion Coefficient” value (0.2µM FtsA alone, replicate Exp.13) was 2.52E-02. For the same substance, the “Diffusion Coefficient” value (0.2µM FtsA alone, replicate Exp.14) was 2.77E-02, the “Diffusion Coefficient” value (0.2µM FtsA alone, replicate Exp.15) was 1.77E-05 and the “Diffusion Coefficient” value (0.2µM FtsA alone, replicate Exp.16) was 1.11E-02. For the same substance, the “Diffusion Coefficient” value (0.2µM FtsA alone, replicate Exp.17) was 1.44E-03, the “Diffusion Coefficient” value (0.2µM FtsA alone, replicate Exp.18) was 2.14E-02 and the “Diffusion Coefficient” value (0.2µM FtsA alone, replicate Exp.19) was 1.18E-02. The “Diffusion Coefficient” value (0.2µM FtsA alone, replicate Exp.2) was 4.63E-02, the “Diffusion Coefficient” value (0.2µM FtsA alone, replicate Exp.20) was 1.47E-02 and the “Diffusion Coefficient” value (0.2µM FtsA alone, replicate Exp.21) was 5.71E-03. For the same substance, the “Diffusion Coefficient” value (0.2µM FtsA alone, replicate Exp.22) was 9.23E-03, the “Diffusion Coefficient” value (0.2µM FtsA alone, replicate Exp.23) was 4.39E-06 and the “Diffusion Coefficient” value (0.2µM FtsA alone, replicate Exp.24) was 1.05E-03. For the same substance, the “Diffusion Coefficient” value (0.2µM FtsA alone, replicate Exp.3) was 3.82E-02, the “Diffusion Coefficient” value (0.2µM FtsA alone, replicate Exp.4) was 2.69E-04 and the “Diffusion Coefficient” value (0.2µM FtsA alone, replicate Exp.5) was 3.65E-02. The “Diffusion Coefficient” value (0.2µM FtsA alone, replicate Exp.6) was 2.63E-02, the “Diffusion Coefficient” value (0.2µM FtsA alone, replicate Exp.7) was 1.83E-02 and the “Diffusion Coefficient” value (0.2µM FtsA alone, replicate Exp.8) was 5.09E-02. The “Diffusion Coefficient” value (0.2µM FtsA alone, replicate Exp.9) was 5.70E-03, the “Diffusion Coefficient” value (0.2µM, + FtsN&Z, Mean, n=8 (WT), 6 (R286W)) was 0.0078 and the “Diffusion Coefficient” value (0.2µM, + FtsN&Z, replicate Exp.1) was 1.04E-02. For the same substance, the “Diffusion Coefficient” value (0.2µM, + FtsN&Z, replicate Exp.2) was 2.82E-03, the “Diffusion Coefficient” value (0.2µM, + FtsN&Z, replicate Exp.3) was 5.82E-03 and the “Diffusion Coefficient” value (0.2µM, + FtsN&Z, replicate Exp.4) was 1.62E-02. For the same substance, the “Diffusion Coefficient” value (0.2µM, + FtsN&Z, replicate Exp.5) was 5.88E-03, the “Diffusion Coefficient” value (0.2µM, + FtsN&Z, replicate Exp.6) was 3.75E-03 and the “Diffusion Coefficient” value (0.2µM, + FtsN&Z, replicate Exp.7) was 5.36E-03. The “Diffusion Coefficient” value (0.2µM, + FtsN&Z, replicate Exp.8) was 1.18E-02, the “Diffusion Coefficient” value (0.2µM, + FtsN, Mean, n=7 (WT), 4 (R286W)) was 0.0132 and the “Diffusion Coefficient” value (0.2µM, + FtsN, replicate Exp.1) was 1.41E-02. The “Diffusion Coefficient” value (0.2µM, + FtsN, replicate Exp.2) was 1.35E-02, the “Diffusion Coefficient” value (0.2µM, + FtsN, replicate Exp.3) was 8.81E-03 and the “Diffusion Coefficient” value (0.2µM, + FtsN, replicate Exp.4) was 1.88E-02. For the same substance, the “Diffusion Coefficient” value (0.2µM, + FtsN, replicate Exp.5) was 1.36E-02, the “Diffusion Coefficient” value (0.2µM, + FtsN, replicate Exp.6) was 1.15E-02 and the “Diffusion Coefficient” value (0.2µM, + FtsN, replicate Exp.7) was 1.21E-02. For the same substance, the “Diffusion Coefficient” value (0.2µM, + FtsZ, Mean, n=7 (WT), 6 (R286W)) was 0.0081, the “Diffusion Coefficient” value (0.2µM, + FtsZ, replicate Exp.1) was 8.42E-03 and the “Diffusion Coefficient” value (0.2µM, + FtsZ, replicate Exp.2) was 4.10E-03. For the same substance, the “Diffusion Coefficient” value (0.2µM, + FtsZ, replicate Exp.3) was 4.88E-04.
